Assay [1] deals with Metabotropic glutamate receptor 1 (Rattus norvegicus, UniProt P23385). Description: Agonist activity in rat at mGlu1a receptor expressed in HEK293 cells. Type of assay: functional, cell-based.
Assay [2] addresses Metabotropic glutamate receptor 2 (Rattus norvegicus, UniProt P31421). In words: Agonist activity in rat at mGlu2 receptor expressed in HEK293 cells. The format is functional, cell-based.
Assay [3] deals with T1, Metabotropic glutamate receptor 8 (Rattus norvegicus, UniProt P70579). Description: Agonist activity in rat at mGlu8a receptor expressed in HEK293 cells. Type of assay: functional, cell-based.
Assay [4] concerns the target Metabotropic glutamate receptor 1 (Rattus norvegicus) (UniProt P23385). Description: Maximal effect obtained with 1 mM of the drug expressed as percent of maxiaml effect of glutamate in rat at mGlu1a receptor expressed in HEK293 cells. Type of assay: functional, cell-based.
Assay [5] deals with Metabotropic glutamate receptor 8 (Rattus norvegicus) (UniProt P70579). In words: Maximal effect obtained with 1 mM of the drug expressed as percent of maxiaml effect of glutamate in rat at mGlu8a receptor expressed in HEK293 cells. Type of assay: functional, cell-based.
Assay [6] addresses Metabotropic glutamate receptor 2 (Rattus norvegicus) (UniProt P31421). Description: (§1) Maximal effect obtained with 1 mM of the drug expressed as percent of maxiaml effect of glutamate in rat at mGlu2 receptor expressed in HEK293 cells. The format is functional, cell-based.
The target in assay [7] is T1, Metabotropic glutamate receptor 8. Description: Agonist activity in rat at Metabotropic glutamate receptor 8 expressed in HEK293 cells. The format is functional, cell-based.
Assay [8] deals with Metabotropic glutamate receptor 2 (Rattus norvegicus) (UniProt P31421). The assay is described as §1. Type of assay: cell-based.

The structures appear in SMILES notation.

T1 sequence (P70579 whole entry): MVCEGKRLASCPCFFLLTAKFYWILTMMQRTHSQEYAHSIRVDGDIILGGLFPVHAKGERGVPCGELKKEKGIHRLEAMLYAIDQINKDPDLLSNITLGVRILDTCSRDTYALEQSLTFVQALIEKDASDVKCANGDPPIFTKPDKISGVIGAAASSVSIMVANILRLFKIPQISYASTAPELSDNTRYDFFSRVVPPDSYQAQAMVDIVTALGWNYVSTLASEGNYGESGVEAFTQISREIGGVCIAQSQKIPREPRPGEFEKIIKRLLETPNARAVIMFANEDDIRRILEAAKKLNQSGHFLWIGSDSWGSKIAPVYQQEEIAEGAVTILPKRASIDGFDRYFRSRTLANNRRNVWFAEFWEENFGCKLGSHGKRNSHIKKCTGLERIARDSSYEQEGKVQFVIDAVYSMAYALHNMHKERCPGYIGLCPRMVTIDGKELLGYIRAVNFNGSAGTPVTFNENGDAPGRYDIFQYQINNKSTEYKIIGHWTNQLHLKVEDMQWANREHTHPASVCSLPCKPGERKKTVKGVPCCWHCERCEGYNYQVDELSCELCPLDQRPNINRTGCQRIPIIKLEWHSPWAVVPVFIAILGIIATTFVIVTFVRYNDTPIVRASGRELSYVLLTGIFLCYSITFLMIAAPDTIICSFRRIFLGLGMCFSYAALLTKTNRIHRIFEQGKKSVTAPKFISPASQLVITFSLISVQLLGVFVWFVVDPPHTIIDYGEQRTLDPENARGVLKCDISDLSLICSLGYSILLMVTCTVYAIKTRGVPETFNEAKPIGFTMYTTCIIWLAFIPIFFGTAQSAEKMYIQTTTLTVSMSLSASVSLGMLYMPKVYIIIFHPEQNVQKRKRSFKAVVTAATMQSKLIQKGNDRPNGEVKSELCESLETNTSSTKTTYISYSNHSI
Chain of Metabotropic glutamate receptor 2 (Rattus norvegicus) (P31421 19-872 limits assumed): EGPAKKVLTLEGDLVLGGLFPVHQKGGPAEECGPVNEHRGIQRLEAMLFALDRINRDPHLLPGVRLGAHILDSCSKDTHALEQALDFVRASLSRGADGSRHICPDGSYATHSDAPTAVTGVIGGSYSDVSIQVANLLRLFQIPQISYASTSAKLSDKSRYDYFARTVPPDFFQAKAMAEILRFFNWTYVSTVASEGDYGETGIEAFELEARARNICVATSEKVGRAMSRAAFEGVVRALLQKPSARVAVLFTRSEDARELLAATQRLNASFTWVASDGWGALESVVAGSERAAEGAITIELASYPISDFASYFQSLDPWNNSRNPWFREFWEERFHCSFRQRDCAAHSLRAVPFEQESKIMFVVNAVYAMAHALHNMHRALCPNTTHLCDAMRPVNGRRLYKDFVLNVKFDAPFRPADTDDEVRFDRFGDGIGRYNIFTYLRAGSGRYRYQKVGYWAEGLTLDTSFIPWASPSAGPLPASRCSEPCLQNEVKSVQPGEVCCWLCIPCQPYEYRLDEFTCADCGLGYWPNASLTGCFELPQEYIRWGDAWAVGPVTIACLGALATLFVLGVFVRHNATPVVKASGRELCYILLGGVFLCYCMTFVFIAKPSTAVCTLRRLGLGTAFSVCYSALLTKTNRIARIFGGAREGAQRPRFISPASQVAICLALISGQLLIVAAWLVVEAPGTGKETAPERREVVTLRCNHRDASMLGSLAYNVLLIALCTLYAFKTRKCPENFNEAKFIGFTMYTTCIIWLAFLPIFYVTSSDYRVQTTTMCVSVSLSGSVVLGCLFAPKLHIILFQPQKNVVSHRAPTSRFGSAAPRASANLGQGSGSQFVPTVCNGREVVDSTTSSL
Chain of Metabotropic glutamate receptor 1 (P23385 whole entry): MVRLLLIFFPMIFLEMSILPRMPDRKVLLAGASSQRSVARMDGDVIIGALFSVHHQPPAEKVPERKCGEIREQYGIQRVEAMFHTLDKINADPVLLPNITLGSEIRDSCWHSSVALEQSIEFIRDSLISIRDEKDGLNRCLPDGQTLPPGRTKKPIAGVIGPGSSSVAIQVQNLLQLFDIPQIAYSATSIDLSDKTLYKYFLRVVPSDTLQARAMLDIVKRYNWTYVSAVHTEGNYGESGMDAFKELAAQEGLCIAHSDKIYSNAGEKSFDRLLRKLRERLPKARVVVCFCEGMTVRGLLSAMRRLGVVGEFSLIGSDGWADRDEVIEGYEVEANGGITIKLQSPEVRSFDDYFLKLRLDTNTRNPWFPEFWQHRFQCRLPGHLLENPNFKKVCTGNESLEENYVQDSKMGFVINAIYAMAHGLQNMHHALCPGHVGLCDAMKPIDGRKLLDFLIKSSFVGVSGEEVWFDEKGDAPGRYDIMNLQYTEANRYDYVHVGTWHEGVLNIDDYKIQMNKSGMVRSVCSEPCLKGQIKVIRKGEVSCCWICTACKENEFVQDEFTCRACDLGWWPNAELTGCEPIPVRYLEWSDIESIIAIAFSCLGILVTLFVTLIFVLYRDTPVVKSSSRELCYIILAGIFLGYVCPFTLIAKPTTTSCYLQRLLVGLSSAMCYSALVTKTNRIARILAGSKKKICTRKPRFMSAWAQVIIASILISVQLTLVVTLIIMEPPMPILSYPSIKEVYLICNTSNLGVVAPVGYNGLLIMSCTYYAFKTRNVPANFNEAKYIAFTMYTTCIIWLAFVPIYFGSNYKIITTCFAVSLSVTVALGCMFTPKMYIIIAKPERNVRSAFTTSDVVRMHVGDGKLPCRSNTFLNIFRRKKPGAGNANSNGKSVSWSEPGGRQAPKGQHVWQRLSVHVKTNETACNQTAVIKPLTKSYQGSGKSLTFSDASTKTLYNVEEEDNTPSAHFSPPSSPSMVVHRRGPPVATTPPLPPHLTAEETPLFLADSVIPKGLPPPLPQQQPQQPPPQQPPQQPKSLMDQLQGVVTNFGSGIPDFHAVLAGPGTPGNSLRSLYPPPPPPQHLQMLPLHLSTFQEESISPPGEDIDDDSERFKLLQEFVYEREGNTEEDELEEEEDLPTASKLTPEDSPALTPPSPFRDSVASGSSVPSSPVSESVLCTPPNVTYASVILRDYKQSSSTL
Chain of Metabotropic glutamate receptor 2 (P31421 whole entry): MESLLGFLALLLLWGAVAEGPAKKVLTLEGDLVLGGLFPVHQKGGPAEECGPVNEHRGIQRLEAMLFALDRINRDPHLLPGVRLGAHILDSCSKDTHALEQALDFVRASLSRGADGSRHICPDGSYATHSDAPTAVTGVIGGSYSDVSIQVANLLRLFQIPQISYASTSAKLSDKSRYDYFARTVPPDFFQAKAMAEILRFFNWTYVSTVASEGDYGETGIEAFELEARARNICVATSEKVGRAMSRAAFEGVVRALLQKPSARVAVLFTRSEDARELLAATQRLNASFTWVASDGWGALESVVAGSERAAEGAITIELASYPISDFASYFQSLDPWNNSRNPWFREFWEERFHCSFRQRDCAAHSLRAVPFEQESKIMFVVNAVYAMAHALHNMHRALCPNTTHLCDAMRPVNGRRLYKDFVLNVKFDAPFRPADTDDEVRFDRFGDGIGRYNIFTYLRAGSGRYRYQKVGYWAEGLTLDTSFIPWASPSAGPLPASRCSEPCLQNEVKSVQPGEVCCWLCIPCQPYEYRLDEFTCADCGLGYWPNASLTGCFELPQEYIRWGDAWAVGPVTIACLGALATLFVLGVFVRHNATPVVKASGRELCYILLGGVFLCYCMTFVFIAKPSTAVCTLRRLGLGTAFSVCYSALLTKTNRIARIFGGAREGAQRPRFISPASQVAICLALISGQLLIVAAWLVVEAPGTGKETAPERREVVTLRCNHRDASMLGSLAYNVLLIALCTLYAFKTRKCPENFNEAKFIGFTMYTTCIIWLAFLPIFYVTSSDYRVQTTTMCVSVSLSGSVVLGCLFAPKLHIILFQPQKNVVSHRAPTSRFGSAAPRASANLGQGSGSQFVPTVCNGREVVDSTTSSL
Chain of Metabotropic glutamate receptor 1 (Rattus norvegicus) (P23385 19-1199 limits assumed): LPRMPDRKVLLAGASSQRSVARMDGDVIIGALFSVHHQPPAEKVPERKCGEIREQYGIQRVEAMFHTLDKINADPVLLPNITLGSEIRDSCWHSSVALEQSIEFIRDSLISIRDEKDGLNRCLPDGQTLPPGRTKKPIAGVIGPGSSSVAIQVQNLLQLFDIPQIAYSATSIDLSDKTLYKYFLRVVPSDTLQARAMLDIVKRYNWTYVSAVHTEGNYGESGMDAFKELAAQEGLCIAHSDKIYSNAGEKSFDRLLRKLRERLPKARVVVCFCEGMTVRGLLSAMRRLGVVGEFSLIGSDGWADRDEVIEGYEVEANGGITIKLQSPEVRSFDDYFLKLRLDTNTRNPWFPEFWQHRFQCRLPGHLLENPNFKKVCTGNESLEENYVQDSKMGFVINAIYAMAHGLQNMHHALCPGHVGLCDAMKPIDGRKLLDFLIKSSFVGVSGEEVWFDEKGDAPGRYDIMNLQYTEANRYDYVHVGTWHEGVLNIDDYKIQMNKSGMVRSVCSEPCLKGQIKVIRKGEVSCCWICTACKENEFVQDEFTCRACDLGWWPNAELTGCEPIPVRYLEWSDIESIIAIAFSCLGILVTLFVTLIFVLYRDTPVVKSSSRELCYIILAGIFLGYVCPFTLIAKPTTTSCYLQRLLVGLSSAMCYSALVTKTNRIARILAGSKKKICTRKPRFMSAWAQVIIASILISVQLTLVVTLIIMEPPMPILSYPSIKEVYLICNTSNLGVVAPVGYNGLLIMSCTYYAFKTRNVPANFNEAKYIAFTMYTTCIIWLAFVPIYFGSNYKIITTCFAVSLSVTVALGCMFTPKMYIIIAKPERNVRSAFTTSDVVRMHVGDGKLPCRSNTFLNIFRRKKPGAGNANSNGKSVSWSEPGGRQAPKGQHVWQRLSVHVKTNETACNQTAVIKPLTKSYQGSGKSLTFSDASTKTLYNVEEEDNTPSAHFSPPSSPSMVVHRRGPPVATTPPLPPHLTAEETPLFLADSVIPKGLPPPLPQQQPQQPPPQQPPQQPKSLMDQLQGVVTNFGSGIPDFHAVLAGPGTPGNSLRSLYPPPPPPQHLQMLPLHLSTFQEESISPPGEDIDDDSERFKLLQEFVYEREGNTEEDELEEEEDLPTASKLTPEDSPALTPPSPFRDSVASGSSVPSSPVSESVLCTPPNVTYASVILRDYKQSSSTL
Chain of Metabotropic glutamate receptor 8 (Rattus norvegicus) (P70579 whole entry): as the sequence (P70579 whole entry) above

As for `N[C@@H](C[C@H](O)C(=O)O)C(=O)O`, the EC50 came to 11 µM in assay [1], 137 µM in assay [2] and 53 µM in assay [3]. In addition, the Rmax in assay [4] was determined as 95%; in assay [5], 94%; in assay [6] it was 60%.

In the case of `N[C@@H](CCC(=O)O)C(=O)O` [GLUTAMIC ACID], the EC50 in assay [7] amounted to 8 µM.

On to `N[C@@H](C[C@@H](O)C(=O)O)C(=O)O`, for which the Rmax in assay [8] was 52%; in assay [4], 70%; in assay [5], 54%. For the same molecule, the figures for the EC50 in assay [1], in assay [2] and in assay [3] were 373 µM, 161 µM and 69 µM, respectively.

These data come from ChEMBL document CHEMBL1134758, “New probes of the agonist binding site of metabotropic glutamate receptors” (Bioorg Med Chem Lett, 2001).
